Here are results for 1 substance from patent US20210054047A1, “NOVEL ANTICANCER FUSION PROTEIN AND USE THEREOF” (KOREA INSTITUTE OF SCIENCE AND TECHNOLOGY, priority 2018, published 2021).

The test system of series [1] is HepG2 tumor. Briefly: Antitumor efficacy, HepG2 xenograft. Type of series: in vivo, mouse. An excerpt:
(§1) In the evaluation of the anti-tumor effect of the present invention, BALB/c nude male mice (6-7 weeks old) were used as an animal model. Particularly, HT29 cells (5×10^6) and HepG2 cells (5×10^6) were subcutaneously inoculated into the left dorsal flank of BALB/c nude mice, respectively. After a volume of tumors reached ˜80-100 mm^3, mice were randomly divided into the 14 following five treatment groups (6 mice/group); DOX-TTPNs, DOX-FTNs, free DOX, empty TTPNs, and buffer. Mice were intravenously injected five times, once every 2 days, and volume of tumors was determined as 1/2(Length×Width^2). Apoptotic cell death in tumor tissues was analyzed using TUNEL staining (In situ Cell Death Detection kit; Roche), and cells were stained with DAPI (4′,6-diamidino-2-phenylindole), as previously described (Kih et al., Biomaterials 180: 67-77, 2018). Apoptotic cells were visualized under a Nikon Eclipse Ti microscope (Nikon) and quantified as the number of TUNEL-positive cells per total number of cells using ImageJ software. After 21 days from injecting tumor cells, tumor tissues were excised from the experimental mice, and cryo-sections (3.5 μm) were fixed with 10% neutral buffered formalin and paraffin-embedded tissue blocks.
(§2) In addition, to investigate whether tumor growth inhibition by TTPN is induced by apoptosis-inducing activity on tumor cells, tumor tissues from the treated mice were analyzed. On the 15th day after the first injection, mice were euthanized, and apoptosis of tumor tissues was analyzed using terminal deoxynucleotidyl transferase dUTP nick end labeling (TUNEL) staining.

The test system of another series is HT29 tumor. Briefly: Antitumor efficacy, HT29 xenograft. The format is in vivo, mouse. The conditions noted are these: i.v. five times every 2 days, DOX-TTPNs 30 mg/kg, DOX 0.4 mg/kg, DOX-FTNs 15 mg/kg, empty TTPNs 30 mg/kg.
Another series deals with HepG2 tumors. The conditions noted are these: mouse, in vivo, iv. On the procedure: The delivery efficiency of TTPN to the tumor microenvironment was investigated by performing an in vivo biodistribution study (n=4 mice/group) of Cy5.5-labeled TTPN using the eXplore Optix System (Advanced Research Technologies Inc., USA). […] Free-Cy5.5 was separated by ultrafiltration (Amicon Ultra 100 K, Millipore), and the fluorescence intensity of the Cy5.5-labeled protein was measured using a fluorescence microplate reader (Infinite M200 Pro, TECAN, Austria). […] The fluorescence intensity of all samples was adjusted to the same value based on the data obtained using a fluorescence microplate reader. To analyze the fluorescence intensity of tumors, the Analysis Workstation software (Advanced Research Technologies Inc.) was used to calculate total photons per […] per steradian (p/s/cm^2/sr) in the region of interest (ROI). At 24 hours post-injection, the mice were sacrificed, and tumors and major organs including liver, lung, spleen, kidney and heart were excised and analyzed in the same manner as described above.

Series [2] in a line: Transmission electron microscopy (TEM) size. Type of series: physicochemical. The protocol: TEM analyses of TTPN and wtFTN were imaged by bio transmission electron microscopy (Hitachi). […] The hydrodynamic sizes of TTPN-DOX and TTPN were analyzed by dynamic light scattering (DLS) using a Zetasizer Nano ZS system (Malvern Instruments, Ltd., UK), as previously described (Zidi et al., Med. Oncol. 2010, 27(2): 185-198, 2010).

The next series deals with XIAP. As to the kind of experiment: Western blot of HT29 lysates: XIAP. Type of series: cell-based, human. The note with it: HT29, 24 hours. The protocol: After incubating HT29 cells with 50 nM DOX-TTPNs, DOX-FTNs, free DOX, or buffer for 24 hours, cells were lysed with radioimmunoprecipitation assay (RIPA) buffer (Cell Signaling Technology) and the concentration of proteins was measured using a DC protein assay kit (Bio-Rad). Equal amounts of proteins (30 μg) were resolved by SDS-PAGE and transferred to nitrocellulose membranes. After blocking with 5% skim milk in Tris-buffered saline containing 0.1% Tween-20 (TBST), membranes were incubated first with anti-Cl-PARP, anti-Cl-caspase-6, anti-cFLIP, anti-Bcl-xL, anti-XIAP, anti-Cl-caspase-3, or anti-GAPDH primary antibody (Cell Signaling Technology), and then with anti-mouse or anti-rabbit secondary antibodies (Sigma-Aldrich), as appropriate. Immunoreactive proteins were visualized using enhanced chemiluminescence (ECL) chemical reagents (Bio-Rad) and ChemiDoc (Bio-Rad), and were analyzed using ImageJ software.
In general terms: A western blot detects proteins with antibodies after separation by electrophoresis.

Series [3] concerns TRAIL receptors on the surface of HepG2 cells. As to the kind of experiment: Cell binding by flow cytometry. The format is cell-based, human. On the procedure: TRAIL receptor expression was evaluated on various cell surfaces. Specifically, HepG2, HT29, and HEK293T cells (2×10^5) were cultured with four types of anti-human TRAIL receptor antibodies (R&D system, MAB347, MAB6311, MAB6301, MAB633). […] Nanocage bound cells were detected with an Accuri™ C6 flow cytometer (BD Biosciences) and analyzed using FlowJo_V10 software (FlowJo). The binding specificity of TTPN to TRAIL receptor was analyzed by blocking experiments by pre-culture of anti-human TRAIL receptor antibodies and cells at 4° C. for 20 minutes. […] Thereafter, the cells were fixed with 4% paraformaldehyde and stained with Hoechst 33258 before analysis for cell binding detection in a fluorescence microscope (Nikon Eclipse Ti, Nikon). Data were analyzed using LAS AF Lite software (Leica).
A general note: In flow cytometry, cells or beads pass a laser one at a time.

The conditions of series [4]: over 1 month (Kih et al.); cited from earlier work.
A further series relates to HepG2 cells. Briefly: Annexin V/PI flow cytometry of apoptosis, HepG2. The format is cell-based, human. The note with it: for surviving tumor cells (Annexin V/PI double negative): 24 hours. The protocol:
FIG. 19 is a series of histograms representing flow cytometry analysis of TRAIL-mediated apoptosis of HepG2 cells as an analysis of in vitro TTPN-mediated apoptosis on TRAIL-sensitive-HepG2 cells. Cells were incubated for 24 hours in the presence of different concentrations of mTRAIL and TTPN and analyzed by Annexin V/PI double staining.
In addition, to investigate whether apoptosis induced by TTPN is induced by the pro-apoptosis pathway of tumor cells, fluorescence-activated cell sorting (FACS) using double staining of Annexin V/propidium iodide (PI) was performed. […] (FIG. 21).

The test system of a further series is DR5. Briefly: Western blot time course of DR5 levels in HT29. Type of series: cell-based, human. The note with it: HT29, 4, 12 and 24 hours.
The test system of series [5] is HepG2 tumor. Briefly: TUNEL analysis of HepG2 tumor tissue. The note with it: 15th day after first injection. Type of series: in vivo, mouse.
Source text: as §1, with “After 21 days from injecting tumor cells, tumor tissues were excised from the experimental mice, and cryo-sections (3.5 μm) were fixed with 10% neutral buffered formalin and paraffin-embedded tissue blocks.” left out
as §2

Experimental for HT29 tumor: To this end, HT29 cells were implanted in mice, and after tumor volumes reached approximately 80˜100 mm^3, mice were intravenously injected with 30 mg/kg of DOX-TTPNs (equivalent to a DOX dose of 0.4 mg/kg), 0.4 mg/kg of DOX, 15 mg/kg of DOX-FTNs (equivalent to the number of moles of ferritin in a dose of TTPNs), or 30 mg/kg of empty TTPNs (equivalent to the number of moles of TRAIL in a dose of TTPNs) five times every 2 days, respectively.

For “TTPN: protein nanocage presenting TRAIL as natural-like homo-trimers; TRAIL 95-281 fused by linker peptide to human ferritin heavy chain”, in the series with HepG2 tumor [1], the “tumor volume inhibition relative to mTRAIL” value is reported as 3.1 times. In addition, the “inhibition of tumor volume” value in the series with HepG2 tumor [1] (i.v. every 2 days, TTPN 23 mg/kg, mTRAIL 12 mg/kg) worked out at 80.52%. Also, in the series with HT29 tumor, the “decrease of tumor volumes” value was “no significant tumor-inhibition effect”. In addition, in the series on HepG2 tumors, the “fluorescence intensity of tumors” value was “higher than that of wtFTN and mTRAIL”. In series [2], the “average size (TEM)” value is on record as 24-28 nm. In addition, the “decrease in XIAP levels compared with buffer treatment” value in the series on XIAP was “no significant effect”. In series [3] (400 nM, 4° C., 20 minutes), the “binding on the surface of HepG2 cells” value is “greater effect than wtFTN”. In addition, the “binding after pre-incubation with four anti-TRAIL receptor antibodies” value in [3] (HepG2, 400 nM) was “reduced”. Besides, the stability entry in [4] was “more than 90%”. The “surviving tumor cells (Annexin V/PI double negative)” value in the series with HepG2 cells (HepG2, 0.4 nM) is 83.5%; in the series on HepG2 cells (HepG2, 100 nM), 12.0%. In addition, the “concentration at which Annexin V-positive cells were detected” value in the series on HepG2 cells (HepG2, 24 hours (FIG. 20)) is listed as 0.4 nM. The “DR5 expression levels over time” value in the series on DR5 is on record as “no significant change”. In the series on HepG2 tumor [5], this substance registered a TUNEL-positive tumor cells of 84.4%.
